# In patent US20260146991A1, “COMPOSITION AND METHODS OF AGING-RELATED AGENT SCREENING AND TARGET ANALYSIS” (Centre for Translational Stem Cell Biology Limited, priority 2022, published 2026):
# “Also recorded” adds a separate entry of the source.
# Columns and labels:
# [1] = test system: TSCs differentiating towards STBs; experiment: RT-qPCR of aging-related marker genes during TSC-STB differentiation; type: cell-based, human; details: FIG. 4H
# Procedure: (§1) To generate the hTSC cell lines, the single cell suspension of hEPSCs were plated on a 6-well plate (1-2×10^3/well) pre-coated with 10 mg/mL Geltrex™ LDEV-Free Reduced Growth Factor Basement Membrane Matrix or Matrigel and cultured in human trophoblast stem cell medium (hTSCM) for 7-10 days. Then single colonies of the differentiated cells on the 6-well plate were picked and expanded. The expanded cell lines were validated with trophoblast markers and RNA-Seq analysis. The established TSC cell lines were maintained in the hTSCM medium and passaged at ratio 1:4-1:5 every 3-5 days. The hTSCM was DMEM/F12 based medium supported with: 110 μM β-mercaptoethanol, 0.2% FBS, 0.5% Penicillin-Streptomycin-Glutamine, 0.3% BSA, 1×ITS-X supplement, 50.0 μg/mL Vc, 50.0 ng/ml EGF, 2.0 μM CHIR99021, 0.5 μM A83-01, 1.0 μM SB431542, 0.8 μM VPA, and 5.0 μM Y27632. Established TSC cells were seeded at 1.0×10^5-2×10^5 cells per well in a six-well plate pre-coated with 10 mg/mL Geltrex™ LDEV-Free Reduced Growth Factor Basement Membrane Matrix or Matrigel, and were induced to differentiate into STBs after culturing in syncytiotrophoblasts medium (STBM) for around 6 days. The STBM comprises: DMEM/F12 supplemented with 110 μM β-mercaptoethanol, 0.5% Penicillin-Streptomycin, 0.3% BSA, 1×ITS-X, 2.5 μM Y27632, 2 μM Forskolin, and 4% KnockOut Serum Replacement. The cells became early syncytiotrophoblasts on day 2-3, and mature syncytiotrophoblasts around day 6.
# RT-qPCR: Total RNA was extracted using RNeasy Mini Kit (Qiagen) per manufacturer specification. Extracted RNA was then reverse transcribed to cDNA using Fastking gDNA diselling RT SuperMix (Tiangen). Gene expression was measured using PowerUp™ SYBR™ Green Master Mix (Applied Biosystems) and StepOnePlus™ Real-Time PCR (Applied Biosystems) with the primers listed in Table E1A. Raw gene expression data was normalized to GAPDH by using the ΔCt method. Statistical analysis was carried out using either one/two-tailed student's t-test in Prism 8 (GraphPad).
# (§2) First, a known anti-aging drug Rapamycin was tested. TSCs in good growing state were seeded at 1.0×10^4-2×10^4 cells per well in a 24-well plate pre-coated with 10 mg/mL Geltrex™ LDEV-Free Reduced Growth Factor Basement Membrane Matrix or Matrigel. After 24 hours, 3 wells continued in TSCM; 3 wells switched to STBM+DMSO; 3 wells switched to STBM+Rapamycin (500 nM). The media was changed every 2-3 days. On day 6, β-hCG was measured by ELISA as described in Example 1. Expression of aging-related marker genes (e.g., CGA and CGB3) was measured by RT-qPCR as described in Example 1.
# [2] = test system: TSCs differentiating towards STBs; experiment: Western blot of β-hCG during TSC-STB differentiation; type: cell-based, human; details: at certain / different concentrations, FIG. 4I
# Procedure: Western blot: The proteins were extracted with RIPA lysis (thermofisher, Cat. 89901) and Pierce Protease Inhibitor Mini Tablets (thermofisher, Cat. A32953). Protein concentrations were measured with Pierce™ BCA Protein Assay Kits (thermofisher, Cat. 23227). Then samples with certain amount of NuPAGE™ LDS Sample Buffer (4×) (thermofisher, Cat. NP0008) were boiled at 70 degree for 10 min. Boiled samples were loaded with the same amount and separated in 12% polyacrylamide gels (Thermofisher Cat. NP0343BOX) and transferred to PVDF membranes using the Bio-Rad transblot turbo system according to the manufacturer's guidance. Images were developed by the ChemiDoc Imaging System and processed with ImageJ 1.47v. The following primary antibodies were used: anti-GAPDH (thermosfisher, Cat. AM4300, 1:10000 for western blot), anti-Ki67 (thermofisher, Cat. MA5-14520, 1:1000 for western blot, 1:200 for IF), anti-HERVK-gag (Austral Biologicals, Cat. HERM-1811-5, 1:200 for IF), anti-TRF1 (Abcam, Cat. ab 10579, 1:100 for IF), anti-ZO-1 (CST, Cat. 13663, 1:200 for IF), anti-CGB3 (Abcam, Cat. Ab131170, 1:200 for IF), anti-H3 (CST, Cat. 4499 1:2000 for western blot), anti-H3K9mc3 (Abcam, Cat. ab8898, 1:1000 for western blot), anti-E-cadherin (CST, Cat. 14472, 1:200 for IF), anti-p38 MAPK (thermofisher, Cat. 338700, 1:1000 for western blot), anti-LaminB1 (thermofisher, Cat. 702972, 1:1000 for western blot, 1:200 for IF), anti-p27 Kip1 (thermofisher, Cat. PA527188, 1:1000 for western blot), anti-Hp1 gamma (thermofisher, Cat. MA3054, 1:1000 for western blot, 1:300 for IF), anti-SIRT1 (CST, Cat. 8469S, 1:1000 for western blot), anti-SIRT6 (CST, Cat. 12486S, 1:1000 for western blot), anti-SIRT3 (thermofisher, Cat. MA514910, 1:1000 for western blot), anti-p53 (thermofisher, Cat. MA512557, 1:1000 for western blot, 1:200 for IF), anti-gammaH2AX (CST, Cat. 2577s, 1:1000 for western blot, 1:200 for IF), anti-IL-6 (thermofisher, Cat. MA523698, 1:50 for IF), anti-hCG (thermofisher, Cat. 14-6508-82, 1:1000 for western blot, 1:200 for IF). […]
# [3] = test system: TSC-STB differentiation; experiment: TSC-STB system, overall evaluation of anti-aging effect; type: cell-based, human; details: summary statement
# Procedure: (§3) Same number of TSCs in robust growing state were seeded in STBM with/without a candidate agent in a black Polystyrene TC-treated 96-well Microplate pre-coated with 10 mg/ml Geltrex™ LDEV-Free Reduced Growth Factor Basement Membrane Matrix or Matrigel (1.5×10^4-2×10^4 cells per well). On each screening microplate, 3 wells of control (cells only with 0.5% DMSO in 100 μL STB growth medium) and 3 wells of positive control (some well-known anti-ageing agents in certain concentration) were included. The cells were cultured at 37° C. and 5% CO2 with saturating humidity and differentiated into mature STB in the medium for 6 days. Cell morphology was monitored daily under a microscope. The signal readouts of reporter molecules was assessed on day 2, day 4, and day 6. On day 6, cells in each well were fixed and stained with DAPI or Hoechst, and cell count and intensity (both reporter and nuclei) were assessed using high content microscopy to assess the agent's effects and cell viability. The agents, especially those that affect cell viability will also be tested at different concentrations and at different day during the STB differentiation process.
# as §2
# [4] = test system: TSCs differentiating towards STBs; experiment: Cell morphology, viability and proliferation during TSC-STB differentiation; type: cell-based, human; details: for morphology: appearance of multinucleated STB cells: treated cells during TSC-STB differentiation, FIG. 4E
# Procedure: as §1, §3, §2
# [5] = test system: TSCs differentiating towards STBs; experiment: ELISA of secreted β-hCG during TSC-STB differentiation; type: cell-based, human; details: compared to the DMSO control group; FIG. 4F
# Procedure: as §1, with “The STBM comprises: DMEM/F12 supplemented with 110 μM β-mercaptoethanol, 0.5% Penicillin-Streptomycin, 0.3% BSA, 1×ITS-X, 2.5 μM Y27632, 2 μM Forskolin, and 4% KnockOut Serum Replacement. The cells became early syncytiotrophoblasts on day 2-3, and mature syncytiotrophoblasts around day 6.” left out
# First, a known anti-aging drug Rapamycin was tested. […] On day 6, β-hCG was measured by ELISA as described in Example 1. Expression of aging-related marker genes (e.g., CGA and CGB3) was measured by RT-qPCR as described in Example 1.
# [6] = test system: model organisms; details: yeast, worms, flies, male mice; background; cited from earlier work
# [7] = background; cited from earlier work
Compound,CGA expression ([1]; 1 μM),CGA expression ([1]; 10 μM),anti-aging effect in the TSC-STB system [3],morphology: appearance of multinucleated STB cells [4],further results
O=c1c(O)c(-c2ccc(O)c(O)c2)oc2cc(O)ccc12 [Fisetin],reduced,increasing,showed anti-aging effects as expected,,β-hCG expression (Western blot) [2]: reduced; β-hCG expression (Western blot) ([2]; listed as Fisctin): significantly reduce
CC(C)C[C@H](NC(=O)OCc1ccccc1)C(=O)N[C@@H](C[C@@H]1CCNC1=O)C(O)S(=O)(=O)[O-].[Na+] (some centres unmarked) [GC376],,,,delayed appearance of multinucleated STB cells,
CC(C)n1nc(-c2ccc3oc(N)nc3c2)c2c(N)ncnc21 [INK128],,,,delayed appearance of multinucleated STB cells,β-hCG expression (Western blot) [2]: significantly reduce; also recorded: reduced; secreted β-hCG level (ELISA) [5]: significantly lower
CC(C)C(=O)OC[C@H]1O[C@@H](n2ccc(NO)nc2=O)[C@H](O)[C@@H]1O [Molnupiravir],,,,delayed appearance of multinucleated STB cells,
"NC(=O)c1ccc[n+]([C@@H]2O[C@H](COP(=O)([O-])O)[C@@H](O)[C@H]2O)c1 [NMN, Nicotinamide mononucleotide]",reduced,increasing,showed anti-aging effects as expected,,
O=c1c(O)c(-c2ccc(O)c(O)c2)oc2cc(O)cc(O)c12 [Quercetin],decrease,decrease,showed anti-aging effects as expected,,
CO[C@H]1C[C@@H]2CC[C@@H](C)[C@@](O)(O2)C(=O)C(=O)N2CCCC[C@H]2C(=O)O[C@H]([C@H](C)C[C@@H]2CC[C@@H](O)[C@H](OC)C2)CC(=O)[C@H](C)/C=C(\C)[C@@H](O)[C@@H](OC)C(=O)[C@H](C)C[C@H](C)/C=C/C=C/C=C/1C [Rapamycin],,,,,"cell viability or proliferation ([4]; 500 nM, FIG. 4A): did not affect"
NCCCCNCCCN [Spermdine],decrease,decrease,,,
CC(=O)Oc1ccccc1C(=O)O [aspirin],,,,,lifespan in some model organisms [6]: extend lifespan; side effects in humans [7]: increase the risk of gastrointestinal bleeding
Cc1ccc(-c2cc(C(F)(F)F)nn2-c2ccc(S(N)(=O)=O)cc2)cc1 [celecoxib],,,,,side effects in humans [7]: major bleeding events and increase in all-cause mortality
CC(C)Cc1ccc(C(C)C(=O)O)cc1 (centres unmarked) [ibuprofen],,,,,lifespan in some model organisms [6]: extend lifespan; side effects in humans [7]: major bleeding events and increase in all-cause mortality
CN(C)C(=N)N=C(N)N [metformin],,,showed anti-aging effects as expected,,
STM2457,,,,delayed appearance of multinucleated STB cells,
